Source: PMC8808171, “Nonselective TRPC channel inhibition and suppression of aminoglycoside-induced premature termination codon readthrough by the small molecule AC1903” (The Journal of Biological Chemistry, 2022)

Legend:
[1] = test system: DMS-114 cells (TP53 R213X); experiment: G418-induced PTC readthrough (full-length p53, capillary electrophoresis Western) in DMS-114 cells; assay type: cell-based, human; details: for suppression of PTC readthrough induced by 400 μg/ml G418: 3 h preincubation with inhibitor, screen at two concentrations (Fig. 1C)
Source text: (§1) Variation in PTC readthrough response has been reported among individuals or cell lines with different nonsense mutations. Although this in part highlights the importance of the stop codon and its surrounding sequence as well as the physical location of the nonsense mutation in the mRNA sequence, understanding the contribution of other underlying genetic variations becomes more complicated. To rule out the effect of the sequence and position of nonsense mutations on response variation to potential PTC readthrough modulators, we studied two cancer cell lines, DMS-114 and TC-71, with identical homozygous nonsense mutation R213X in their TP53 gene. […] To find out whether the reduced response to G418 in TC-71 cells was associated with lower intracellular levels of G418, we measured concentrations of G418 in both cell lines at 0, 8 and 24 h post exposure to G418 (100 μg/ml).
Figure 1 Effect of TRPC inhibitors on G418 induced PTC readthrough. A, DMS-114 and TC-71 cell lines with homozygous TP53 nonsense mutation (R213X) were exposed to indicated concentrations of G418 for 24 h and p53 levels (full-length, FL-p53; truncated, TR-p53) were measured. B, 100 μg/ml G418 was added to DMS-114 and TC-71 cells and its total intracellular levels were measured at indicated time points (n = 5; data normalized to the highest response in each experiment; bars represent mean ± SD). C, DMS-114 cells were preincubated with indicated concentrations of TRPC inhibitors GFB-8438 (GFB), SAR7334 (SAR), SKF96365 (SKF), 2-APB, or AC1903 for 3 h followed by exposure to 400 μg/ml G418 for another 3 h. At 24 h cell lysates were prepared and p53 levels were measured. In panels A and C, protein levels were measured by automated capillary electrophoresis Western analysis (using vinculin and GAPDH as loading controls). Samples of cell lysates containing equal amounts of total protein were loaded in all capillaries and FL-p53 levels were expressed relative to the amount of FL-p53 in untreated cells. ∗ indicates statistically significant difference between samples according to two-way ANOVA (p < 0.05). PTC, premature termination codon; TRPC, transient receptor potential canonical.
To further investigate AC1903 as a suppressor of G418-induced PTC readthrough, we exposed DMS-114 and TC-71 cells to various concentrations of AC1903 for 3 h prior to exposure to 400 μg/ml G418 for another 3 h, followed by media replacement and incubation for another 18 h.
(§2) Figure 2 Effect of AC1903 on PTC readthrough and G418 trafficking.A and B, DMS-114 (A) or TC-71 (B) cells were pretreated with indicated concentrations of AC1903 for 3 h followed by exposure to 400 μg/ml G418. After 3 h medium was replenished and at 24 h cell lysates were prepared and p53 levels were measured. C and E, DMS-114 (C) or JEB01 (E) cells were either left untreated or pretreated with 150 μM AC1903 for 3 h followed by exposure to indicated concentrations of G418 for another 3 h. At 24 h cell lysates were prepared and p53 (C) or Collagen XVII (E) levels were measured. In panels A–C, protein levels were measured by automated capillary electrophoresis Western analysis (using vinculin as loading control). In panel E, protein levels were measured by Western blot (using beta-actin as loading control). Samples of cell lysates containing equal amounts of total protein were loaded in all capillaries and FL-p53 or Collagen XVII levels were expressed relative to their respective amounts in untreated cells. D, total intracellular levels of G418 were measured in the same lysates as in (C) (n = 5; data normalized to the highest response in each experiment; bars represent mean ± SD). F, total intracellular levels of G418 were measured in the same lysates as in (E) (n = 2; data normalized to the highest response in each experiment; bars represent mean ± SD). ∗ indicates statistically significant difference between samples according to one-way ANOVA (p < 0.05). PTC, premature termination codon. […]

[2] = test system: TC-71 cells; experiment: Measurement of intracellular G418 (gentamicin ELISA) in TC-71 cells; assay type: cell-based, human; details: 100 μg/ml G418
Source text: as §1
(§3) Figure 1 Effect of TRPC inhibitors on G418 induced PTC readthrough. A, DMS-114 and TC-71 cell lines with homozygous TP53 nonsense mutation (R213X) were exposed to indicated concentrations of G418 for 24 h and p53 levels (full-length, FL-p53; truncated, TR-p53) were measured. B, 100 μg/ml G418 was added to DMS-114 and TC-71 cells and its total intracellular levels were measured at indicated time points (n = 5; data normalized to the highest response in each experiment; bars represent mean ± SD). […]

[3] = test system: TC-71 cells (TP53 R213X); experiment: G418-induced PTC readthrough (full-length p53, capillary electrophoresis Western) in TC-71 cells; assay type: cell-based; details: increasing concentrations of G418, 24 h
Source text: as §1, §3

[4] = test system: hTRPV4; parameters: method as in PMID 23136043, PMID 28523109; details: cited from earlier work
[5] = test system: DMS-114 cells (TP53 R213X); experiment: G418-induced PTC readthrough (full-length p53, capillary electrophoresis Western) in DMS-114 cells; assay type: cell-based, human
[6] = test system: DMS-114 cells; experiment: Measurement of intracellular G418 (gentamicin ELISA) in DMS-114 cells; assay type: cell-based, human; details: Pico145 up to 3 μM, 400 μg/ml G418 (Fig. 3B)
Protocol: as §2, with “Samples of cell lysates containing equal amounts of total protein were loaded in all capillaries and FL-p53 or Collagen XVII levels were expressed relative to their respective amounts in untreated cells.” left out, “0.05).” for “0.05). PTC, premature termination codon.”

NCCOB(c1ccccc1)c1ccccc1 [2-APB]
suppression of PTC readthrough induced by 400 μg/ml G418 [1]: ~66%

CN[C@@H]1[C@@H](O)[C@@H](O[C@@H]2[C@@H](O)[C@H](O[C@H]3O[C@H]([C@@H](C)O)[C@@H](O)[C@H](O)[C@H]3N)[C@@H](N)C[C@H]2N)OC[C@]1(C)O [G418]
intracellular G418 level lower in TC-71 compared with DMS-114 ([2]; 8 h post exposure): ~11% | intracellular G418 level lower in TC-71 compared with DMS-114 ([2]; 24 h post exposure): ~9% | increase in PTC readthrough compared to untreated cells [3]: up to eightfold | increase in production of full-length p53 (readthrough product) compared with untreated cells ([1]; increasing concentrations of G418, 24 h): up to 144 fold

O=C1CN(c2cn[nH]c(=O)c2Cl)CCN1Cc1ccccc1C(F)(F)F [GFB-8438]
suppression of PTC readthrough induced by 400 μg/ml G418 [1]: no effect

O=C(NC1(c2ccccc2)CC1)c1c(CN2CCC(N3CCCCC3)CC2)c(-c2cccc(C(F)(F)F)c2)nc2cc(Br)ccc12 [GSK2193874]
IC50 [4]: 0.04 µM | effect on full-length p53 production ([5]; 0.03–3 μM GSK2193874 alone or in combination with 400 μg/ml G418 (Fig. S12)): did not have a major effect

Cn1c(=O)n(CCCO)c(=O)c2c1nc(Oc1cccc(OC(F)(F)F)c1)n2Cc1ccc(Cl)cc1 [Pico145]
effect on intracellular G418 levels [6]: did not affect | effect on PTC readthrough ([5]; Pico145 up to 3 μM, 400 μg/ml G418 (Fig. 3A)): did not affect

N#Cc1ccc(O[C@@H]2c3ccccc3C[C@H]2N2CCC[C@@H](N)C2)c(Cl)c1 [SAR7334]
suppression of PTC readthrough induced by 400 μg/ml G418 [1]: no effect

COc1ccc(CCCOC(Cn2ccnc2)c2ccc(OC)cc2)cc1 (stereo not drawn) [SKF96365]
suppression of PTC readthrough induced by 400 μg/ml G418 [1]: ~33%
